Laboratory results taken from PubChem BioAssay AID256 (DTP/NCI, 2004).
Where “and” joins values, the source holds several entries; their conditions need not be identical. Identical values can stand only once. Toxic doses and inconclusive results are not listed.

Test system: CD2F1 mice, L1210 leukemia ip, survival T/C
Test: NCI In Vivo Anticancer Drug Screen. Data for tumor model L1210 Leukemia (intraperitoneal) in CD2F1 (CDF1) mice
Settings: higher = longer survival
Procedure, shortened: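 Vehicle-treated tumor-bearing mice served as controls (C) for compound-treated mice (T). Reported figure is T divided by C.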

[1] = endpoint: mean survival time, dose: 100.0 mg/kg/injection, schedule: Q01DX001 (ip), vehicle: saline with Tween-80
[2] = endpoint: mean survival time, dose: 200.0 mg/kg/injection, schedule: Q01DX001 (ip), vehicle: saline with Tween-80
[3] = endpoint: mean survival time, dose: 100.0 mg/kg/injection, schedule: Q04DX002 (ip), vehicle: saline with Tween-80
[4] = endpoint: mean survival time, dose: 200.0 mg/kg/injection, schedule: Q04DX002 (ip), vehicle: saline with Tween-80
[5] = endpoint: mean survival time, dose: 400.0 mg/kg/injection, schedule: Q04DX002 (ip), vehicle: saline with Tween-80
[6] = endpoint: mean survival time, dose: 100.0 mg/kg/injection, schedule: Q01DX009 (ip), vehicle: saline with Tween-80
[7] = endpoint: mean survival time, dose: 100.0 mg/kg/injection, schedule: Q04DX003 (ip), vehicle: saline with Tween-80
[8] = endpoint: mean survival time, dose: 200.0 mg/kg/injection, schedule: Q01DX009 (ip), vehicle: saline with Tween-80
[9] = endpoint: mean survival time, dose: 200.0 mg/kg/injection, schedule: Q04DX003 (ip), vehicle: saline with Tween-80
[10] = endpoint: mean survival time, dose: 400.0 mg/kg/injection, schedule: Q01DX009 (ip), vehicle: saline with Tween-80
[11] = endpoint: mean survival time, dose: 400.0 mg/kg/injection, schedule: Q04DX003 (ip), vehicle: saline with Tween-80

With `CN(C)C(=O)CCC(NC(=O)c1ccc(N(C)Cc2cnc3nc(N)nc(N)c3n2)cc1)C(=O)O` (centres undefined) the T/C (endpoint: mean survival time, dose: 1.0 mg/kg/injection, schedule: Q01DX009 (ip), vehicle: sodium bicarbonate) was 103 % of control and the T/C (endpoint: mean survival time, dose: 10.0 mg/kg/injection, schedule: Q01DX009 (ip), vehicle: sodium bicarbonate) was 108 % of control.
For `Nc1ncnc2c1c1c(=O)[nH]c(=O)[nH]c1n2C1OC(CO)C(O)C1O` (centres undefined), the T/C (endpoint: mean survival time, dose: 12.5 mg/kg/injection, schedule: Q01DX005 (ip), vehicle: distilled water + Tween-80) was 111 % of control, the T/C (endpoint: mean survival time, dose: 25.0 mg/kg/injection, schedule: Q01DX005 (ip), vehicle: distilled water + Tween-80) was 116 % of control and the T/C (endpoint: mean survival time, dose: 50.0 mg/kg/injection, schedule: Q01DX005 (ip), vehicle: distilled water + Tween-80) was 119 % of control. For the same compound, the T/C (endpoint: mean survival time, dose: 100.0 mg/kg/injection, schedule: Q01DX005 (ip), vehicle: distilled water + Tween-80) was 158 % of control, the T/C (endpoint: mean survival time, dose: 200.0 mg/kg/injection, schedule: Q01DX005 (ip), vehicle: distilled water + Tween-80) was 172 % of control and the T/C (endpoint: mean survival time, dose: 400.0 mg/kg/injection, schedule: Q01DX005 (ip), vehicle: distilled water + Tween-80) was 208 % of control. For the same compound, the T/C (endpoint: median survival time, dose: 25.0 mg/kg/injection, schedule: Q01DX009 (ip), vehicle: distilled water + Tween-80) was 114 % of control, the T/C (endpoint: median survival time, dose: 50.0 mg/kg/injection, schedule: Q01DX009 (ip), vehicle: distilled water + Tween-80) was 115 % of control and 109 % of control and the T/C (endpoint: median survival time, dose: 100.0 mg/kg/injection, schedule: Q01DX009 (ip), vehicle: distilled water + Tween-80) was 121 % of control and 110 % of control. The T/C (endpoint: median survival time, dose: 400.0 mg/kg/injection, schedule: Q01DX009 (ip), vehicle: distilled water + Tween-80) was 105 % of control.
`CC(=O)Nc1cc([N+](=O)[O-])cc([N+](=O)[O-])c1O` was tested, and the T/C [1] was 101 % of control and the T/C [2] was 98 % of control.
With `CN(C)C(=S)Oc1ccc(S(=O)(=O)F)cc1` the T/C [3] was 98 % of control, the T/C [4] was 91 % of control and the T/C [5] was 109 % of control.
For `O=C1c2ccccc2C(=O)N1CCCCCBr`, the T/C [6] was 96 % of control, the T/C [7] was 103 % of control and the T/C [8] was 96 % of control. For the same compound, the T/C [9] was 91 % of control, the T/C [10] was 94 % of control and the T/C [11] was 100 % of control.
With `O=C(Nc1ccccc1)c1ccc(Cl)c([N+](=O)[O-])c1` the T/C (endpoint: mean survival time, dose: 25.0 mg/kg/injection, schedule: Q01DX009 (ip), vehicle: saline with Tween-80) was 95 % of control, the T/C (endpoint: mean survival time, dose: 25.0 mg/kg/injection, schedule: Q04DX003 (ip), vehicle: saline with Tween-80) was 86 % of control and the T/C (endpoint: mean survival time, dose: 50.0 mg/kg/injection, schedule: Q01DX009 (ip), vehicle: saline with Tween-80) was 97 % of control. The T/C (endpoint: mean survival time, dose: 50.0 mg/kg/injection, schedule: Q04DX003 (ip), vehicle: saline with Tween-80) was 89 % of control, the T/C [6] was 100 % of control and the T/C [7] was 94 % of control and 101 % of control.
For `CN(C)C(=O)Sc1c(S(=O)(=O)F)ccc(Cl)c1Cl`, the T/C [3] was 96 % of control, the T/C [4] was 96 % of control and the T/C [5] was 100 % of control.
With `C=C1C(=O)O[C@@H]2C[C@@]3(C)CC(=O)C=C(C)[C@@H]3C[C@H]12` the T/C [1] was 101 % of control, the T/C [6] was 98 % of control and the T/C [2] was 97 % of control. For the same compound, the T/C [8] was 98 % of control, the T/C (endpoint: mean survival time, dose: 400.0 mg/kg/injection, schedule: Q01DX001 (ip), vehicle: saline with Tween-80) was 101 % of control and the T/C [10] was 104 % of control.
In the case of `ON=C(Cc1ccccc1)Cc1ccccc1`, the T/C [6] is reported as 103 % of control, the T/C [7] is reported as 102 % of control and the T/C [8] is reported as 94 % of control. For the same compound, the T/C [9] was 100 % of control, the T/C [10] was 95 % of control and the T/C [11] was 105 % of control.
